Data from patent US4428942A, “Analogs of somatostatin” (The Salk Institute for Biological Studies, priority 1982, dated 1984).
Where two headings read alike, the source gives them in different places. Bridge positions count the residues as written; N and C are the ends. Square brackets hold non-standard residues; d marks the D form. Peptide text beside a SMILES is read from it.

Experiments:
isolated rabbit ileum = tested on: isolated rabbit ileum
Experimental: The analogs are tested in vitro in isolated rabbit ileum using the modified Ussing chamber technique, as described in Amer. J. of Physiol., 225:776-780 (1973). Unidirectional chloride fluxes are determined and used to characterize bi-directional fluxes following the addition of an SS-analog. Changes are measured with varying concentrations, and the potency to inhibit ion transport is quantitated and expressed as a percentage of the potency of SS-14.

[1] = tested on: release of growth hormone induced by isobutyl methyl xanthine in pituitary cells; assay type: cell-based, rat
Experimental: To determine the effectiveness of the peptides to inhibit the release of growth hormone, in vitro radioimmunoassays are carried out using the SS analogs in side-by-side comparison with equimolar concentrations of somatostatin-14 having a known effectiveness to inhibit the release of growth hormone induced by the application of isobutyl methyl xanthine to pituitary cells. Cultures are used which include cells of rat pituitary glands removed some four to five days previously in a system that minimizes enzymatic degradation, generally following the procedure set forth in Vale et al., Methods in Enzymology, Hormones and Cyclic Nucleotides (1975) Vol. 37, p. 82. Both cultures of a defined standard medium and cultures which are considered optimal for the secretion of growth hormone, as a result of having additions of either 2% or 10% of serum from a foetal calf, are used for the comparative testing.

secretion of glucagon = tested on: secretion of glucagon; design: species or system rats; details: in vivo
Experimental: (§1) In vivo experiments are carried out with the analogs, using the procedure described in Brown et al., Metabolism (1976) Vol. 25, pp. 1501-1503, to determine the potency, relative to somatostatin-14, to inhibit the secretion of glucagon and insulin stimulated by the administration of arginine to groups of six rats.

secretion of insulin = details: in vivo
Experimental: as §1

[2] = cultured rat pituitary cells, isobutyl methyl xanthine-induced release, SS-14 = 100
[3] = isolated rabbit ileum, Ussing chamber, chloride fluxes, SS-14 = 100
[4] = arginine-stimulated, rats, SS-14 = 100

Row | Molecule | Ion Transport (potency to inhibit ion transport expressed as a percentage of the potency of SS-14) (isolated rabbit ileum) | GH (potency for the inhibition of GH release relative to SS-14) [1, 2] | Ion Transport (potency to inhibit ion transport expressed as a percentage of the potency of SS-14) (isolated rabbit ileum; [3]) | Glucagon (potency to inhibit glucagon secretion relative to SS-14) (secretion of glucagon; [4]) | Insulin (potency to inhibit insulin secretion relative to SS-14) (secretion of insulin; [4]) | GH (potency for the inhibition of GH release relative to SS-14) [1] | Glucagon (potency to inhibit glucagon secretion relative to SS-14) (secretion of glucagon; rat) | Insulin (potency to inhibit insulin secretion relative to SS-14) (secretion of insulin; rat)
1 | C[C@@H](O)[C@@H]1NC(=O)[C@H](CCCCN)NC(=O)[C@@H](Cc2c[nH]c3ccccc23)NC(=O)[C@H](Cc2ccccc2)NC(=O)[C@H](Cc2ccccc2)NC(=O)[C@@H](N)CSSC[C@@H](C(=O)O)NC(=O)[C@H](CO)NC(=O)[C@H](Cc2c[nH]c3ccccc23)NC1=O [Peptide 4, des-AA^1,2,4,5,12,[D-Trp^8,Trp^11]--SS] (H-CFF[dW]KTWSC-OH; disulfide 1-9) | 37% | – | – | – | – | – | – | –
2 | C[C@@H](O)[C@@H]1NC(=O)[C@H](Cc2c[nH]c3ccccc23)NC(=O)[C@H]([C@@H](C)O)NC(=O)[C@H](CCCCN)NC(=O)[C@H](Cc2c[nH]c3ccccc23)NC(=O)[C@H](Cc2ccccc2)NC(=O)[C@H](Cc2ccccc2)NC(=O)[C@H](CC(N)=O)NC(=O)[C@H](CCCCN)NC(=O)[C@@H](N)CSSC[C@@H](C(=O)O)NC(=O)[C@H](CO)NC1=O [Peptide 3, des-AA^1,2,[Trp^11]--SS] (H-CKNFFWKTWTSC-OH; disulfide 1-12) | 405% | – | – | – | – | – | – | –
3 | C[C@H](N)C(=O)NCC(=O)N[C@H]1CSSC[C@@H](C(=O)O)NC(=O)[C@H](CO)NC(=O)[C@H]([C@@H](C)O)NC(=O)[C@H](Cc2ccccc2)NC(=O)[C@H]([C@@H](C)O)NC(=O)[C@H](CCCCN)NC(=O)[C@H](Cc2c[nH]c3ccccc23)NC(=O)[C@H](Cc2ccccc2)NC(=O)[C@H](Cc2ccccc2)NC(=O)[C@H](CCCCN)NC1=O [Peptide 13, des-Asn^5 --SS] (H-AGCKFFWKTFTSC-OH; disulfide 3-13) | – | 4% | 11% | < 1% | 10% | – | – | –
4 | C[C@@H](O)[C@@H]1NC(=O)[C@H](CCCCN)NC(=O)[C@@H](Cc2c[nH]c3ccccc23)NC(=O)[C@H](Cc2ccccc2)NC(=O)[C@H](Cc2ccccc2)NC(=O)[C@@H](N)CSSC[C@@H](C(=O)O)NC(=O)[C@H](CO)NC(=O)[C@H](Cc2ccccc2)NC1=O [Peptide 6, des-AA^1,2,4,5,12,[D-Trp^8]--SS] (H-CFF[dW]KTFSC-OH; disulfide 1-9) | 257% | – | – | – | – | 45% | 20% | 70%
5 | C[C@H](N)C(=O)NCC(=O)N[C@H]1CSSC[C@@H](C(=O)O)NC(=O)[C@H](CO)NC(=O)[C@H]([C@@H](C)O)NC(=O)[C@H](Cc2c[nH]cn2)NC(=O)[C@H]([C@@H](C)O)NC(=O)[C@H](CCCCN)NC(=O)[C@H](Cc2c[nH]c3ccccc23)NC(=O)[C@H](Cc2ccccc2)NC(=O)[C@H](Cc2ccccc2)NC(=O)[C@H](CC(N)=O)NC(=O)[C@H](CCCCN)NC1=O [Peptide 10, [His^11]--SS] (H-AGCKNFFWKTHTSC-OH; disulfide 3-14) | 48% | – | – | – | – | – | < 1% | < 1%
6 | C[C@H](N)C(=O)NCC(=O)N[C@H]1CSSC[C@@H](C(=O)O)NC(=O)[C@H](CO)NC(=O)[C@H]([C@@H](C)O)NC(=O)[C@H](C)NC(=O)[C@H]([C@@H](C)O)NC(=O)[C@H](CCCCN)NC(=O)[C@H](Cc2c[nH]c3ccccc23)NC(=O)[C@H](Cc2ccccc2)NC(=O)[C@H](Cc2ccccc2)NC(=O)[C@H](CC(N)=O)NC(=O)[C@H](CCCCN)NC1=O [Peptide 5, [Ala^11]--SS] (H-AGCKNFFWKTATSC-OH; disulfide 3-14) | 52% | – | – | – | – | 3% | – | < 10%
7 | C[C@H](N)C(=O)NCC(=O)N[C@H]1CSSC[C@H](C(=O)O)NC(=O)[C@H](CO)NC(=O)[C@H]([C@@H](C)O)NC(=O)[C@H](Cc2ccccc2)NC(=O)[C@H]([C@@H](C)O)NC(=O)[C@H](CCCCN)NC(=O)[C@H](Cc2c[nH]c3ccccc23)NC(=O)[C@H](Cc2ccccc2)NC(=O)[C@H](Cc2ccccc2)NC(=O)[C@H](CC(N)=O)NC(=O)[C@H](CCCCN)NC1=O [Peptide 17, [D-Cys^14]--SS] | – | 270% | 336% | 310% | 20% | – | – | –
8 | C[C@H](N)C(=O)NCC(=O)N[C@H]1CSSC[C@@H](C(=O)O)NC(=O)[C@H](CO)NC(=O)[C@H]([C@@H](C)O)NC(=O)[C@H](Cc2ccccc2)NC(=O)[C@H]([C@@H](C)O)NC(=O)[C@H](CCCCN)NC(=O)[C@H](Cc2c[nH]c3ccccc23)NC(=O)[C@H](Cc2ccccc2)NC(=O)[C@@H](Cc2ccccc2)NC(=O)[C@H](CC(N)=O)NC(=O)[C@H](CCCCN)NC1=O [Peptide 16, [D-Phe^6]--SS] | – | 5% | 10% | < 1% | < 1% | – | – | –
9 | C[C@H](N)C(=O)NCC(=O)N[C@H]1CSSC[C@@H](C(=O)O)NC(=O)[C@H](CO)NC(=O)[C@H]([C@@H](C)O)NC(=O)[C@H](Cc2ccccc2)NC(=O)[C@H]([C@@H](C)O)NC(=O)[C@H](CCCCN)NC(=O)[C@H](Cc2c[nH]c3ccccc23)NC(=O)[C@H](Cc2ccccc2)NC(=O)[C@H](Cc2ccccc2)NC(=O)[C@H](CC(N)=O)NC(=O)[C@H](CCCCN)NC1=O [SS-14, somatostatin] | – | 100% | 100% | 100% | 100% | – | – | –
10 | C[C@H](N)C(=O)NCC(=O)N[C@H]1CSSC[C@@H](C(=O)O)NC(=O)[C@H](CO)NC(=O)[C@H]([C@@H](C)O)NC(=O)[C@H](Cc2ccccc2)NC(=O)[C@H]([C@@H](C)O)NC(=O)[C@H](CCCCN)NC(=O)[C@H](Cc2c[nH]c3ccccc23)NC(=O)[C@H](Cc2ccccc2)NC(=O)[C@H](Cc2ccccc2)NC(=O)[C@H](CC(N)=O)NC(=O)[C@@H](CCCCN)NC1=O [Peptide 15, [D-Lys^4]--SS] | – | 22% | 139% | 1% | 1% | – | – | –
11 | C[C@H](N)C(=O)NCC(=O)N[C@H]1CSSC[C@@H](C(=O)O)NC(=O)[C@H](CO)NC(=O)[C@H]([C@@H](C)O)NC(=O)[C@H](CCCNC(=N)N)NC(=O)[C@H]([C@@H](C)O)NC(=O)[C@H](CCCCN)NC(=O)[C@H](Cc2c[nH]c3ccccc23)NC(=O)[C@H](Cc2ccccc2)NC(=O)[C@H](Cc2ccccc2)NC(=O)[C@H](CC(N)=O)NC(=O)[C@H](CCCCN)NC1=O [Peptide 2, [Arg^11]--SS] (H-AGCKNFFWKTRTSC-OH; disulfide 3-14) | 291% | – | – | – | – | – | < 1% | 142%
12 | C[C@H](N)C(=O)NCC(=O)N[C@H]1CSSC[C@@H](C(=O)O)NC(=O)[C@H](CO)NC(=O)[C@H]([C@@H](C)O)NC(=O)[C@H](CCC(=O)O)NC(=O)[C@H]([C@@H](C)O)NC(=O)[C@H](CCCCN)NC(=O)[C@H](Cc2c[nH]c3ccccc23)NC(=O)[C@H](Cc2ccccc2)NC(=O)[C@H](Cc2ccccc2)NC(=O)[C@H](CC(N)=O)NC(=O)[C@H](CCCCN)NC1=O [Peptide 12, [Glu^11]--SS] (H-AGCKNFFWKTETSC-OH; disulfide 3-14) | 9% | – | – | – | – | – | < 1% | < 1%
13 | des-AA^1,2,[β-Nal^11 ]--SS [Peptide 11] | – | – | 107% | – | – | – | – | –
14 | C[C@@H](O)[C@@H]1NC(=O)[C@H](Cc2ccccc2)NC(=O)[C@H]([C@@H](C)O)NC(=O)[C@H](CCCCN)NC(=O)[C@H](Cc2c[nH]c3ccccc23)NC(=O)[C@H](Cc2ccccc2)NC(=O)[C@H](Cc2ccccc2)NC(=O)[C@H](CC(N)=O)NC(=O)[C@H](CCCCN)NC(=O)[C@@H](N)CSSC[C@@H](C(=O)O)NC(=O)[C@H](CO)NC1=O [Peptide 9, des-Ala^1,Gly^2 --SS] (H-CKNFFWKTFTSC-OH; disulfide 1-12) | – | 60% | 231% | – | 61% | – | – | –
